Laboratory results as given in patent US9487490B2, “3-cyclohexenyl and cyclohexyl substituted indole and indazole compounds as RORgammaT inhibitors and uses thereof” (Merck Sharp & Dohme Corp., priority 2012, dated 2016).
pIC50: −log10 of the molar value.

Target: human RORgammaT-Ligand Binding Domain (LBD) (Homo sapiens (Human), UniProt P51449)
Experiment: RORγ-Ligand Binding Domain TR-FRET assay (co-activator peptide SRC1_2 recruitment)
Assay type: biochemical
Settings: Fret IC50 (nM), HIS-tagged RORγ-LBD 3 nM, biotinylated SRC1 LXXLL peptide 100 nM, incubated overnight at 4° C., 665 nm/615 nm signal quotient
From the text: Activation of RORgammaT activity can be measured using, e.g., biochemical TR-FRET assay. In such an assay, interaction of cofactor-derived peptides with human RORgammaT-Ligand Binding Domain (LBD) can be measured.
To identify novel antagonists of RORgammaT, an assay was developed which employs the interaction of RORgammaT with its co-activator peptide SRC1_2. […] The RORγ-Ligand Binding Domain TR-FRET Assay was run according to the following protocol.
HIS-tagged RORγ-LBD protein was expressed in SF9 cells using a baculovirus expression system. The RORγ-LBD protein was purified by glutathione sepharose chromatography. Separately, SF9 cells not expressing any recombinant protein were lysed and the lysate was added to the purified RORγ-LBD at 0.25 μl lysate (from 10,000 SF9 cells)/nM purified protein. The mixture was then diluted in assay buffer (50 mM Tris pH 7.0, 50 mM KCl, 1 mM EDTA, 0.1 mM DTT) to obtain RORγ-LBD final concentration of 3 nM in 384-well assay plate.
Compounds to be tested were injected to the assay plate using Acoustic Droplet Ejection technology by Echo 550 liquid handler (Labcyte, Calif.).

Sequence of human RORgammaT-Ligand Binding Domain (LBD) (P51449 269-508): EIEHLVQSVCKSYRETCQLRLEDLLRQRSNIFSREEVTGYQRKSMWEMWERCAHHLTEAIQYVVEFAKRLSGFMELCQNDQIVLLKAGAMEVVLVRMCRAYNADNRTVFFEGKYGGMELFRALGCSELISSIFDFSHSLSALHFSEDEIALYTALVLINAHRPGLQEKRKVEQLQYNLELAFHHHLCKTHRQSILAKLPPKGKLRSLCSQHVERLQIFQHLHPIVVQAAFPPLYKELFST

Compared with CC1(C)C=C(c2nn(C(=O)c3c(Cl)cccc3C(F)(F)F)c3cccc(F)c23)CCC1C(=O)O (racemic) [Example 10A, (R and S)-4-(1-(2-chloro-6-(trifluoromethyl)benzoyl)-4-fluoro-1H-indazol-3-yl)-2,2-dimethylcyclohex-3-enecarboxylic acid], CC1(C)CC(c2nn(C(=O)c3c(Cl)cccc3C(F)(F)F)c3cccc(F)c23)=CCC1C(=O)O (racemic) [Example 10B, (R and S) 4-(1-(2-chloro-6-(trifluoromethyl)benzoyl)-4-fluoro-1H-indazol-3-yl)-6,6-dimethylcyclohex-3-enecarboxylic acid] is 3.6-fold lower in IC50: 343 nM for the first, 96 nM for the second.

Same assay, conditions: HIS-tagged RORγ-LBD 3 nM, biotinylated SRC1 LXXLL peptide 100 nM, incubated overnight at 4° C., 665 nm/615 nm signal quotient; read-out: Fret IC50

Compared with CC1CC(C(=O)O)CC=C1c1nn(C(=O)c2c(Cl)cccc2C(F)(F)F)c2cccc(F)c12 (racemic) [Example 12A, 4-(1-(2-chloro-6-(trifluoromethyl)benzoyl)-4-fluoro-1H-indazol-3-yl)-5-methylcyclohex-3-enecarboxylic acid], O=C(O)C1CC=C(c2nn(C(=O)c3c(Cl)cccc3C(F)(F)F)c3ccccc23)CC1 (stereo not drawn) [Example 1H, 4-(1-(2-chloro-6-(trifluoromethyl)benzoyl)-1H-indazol-3-yl)cyclohex-3-enecarboxylic acid] is 0.43 log units higher in pIC50: 7.27 for the first, 7.70 for the second. The second is the more potent here.

Going from COC1CN(C(=O)c2ccc3c(C4=CCC(C(=O)O)CC4)nn(C(=O)c4c(Cl)cccc4C4CC4)c3c2)C1 (single isomer, unassigned) [Example 2A, (R or S)-4-(1-(2-chloro-6-cyclopropylbenzoyl)-6-(3-methoxyazetidine-1-carbonyl)-1H-indazol-3-yl)cyclohex-3-enecarboxylic acid] to COC1CN(C(=O)c2ccc3c(C4=CC[C@](C)(C(=O)O)CC4)nn(C(=O)c4c(Cl)cccc4C4CC4)c3c2)C1 (single isomer, unassigned) [Example 2C, (R or S)-4-(1-(2-chloro-6-cyclopropylbenzoyl)-6-(3-methoxyazetidine-1-carbonyl)-1H-indazol-3-yl)-1-methylcyclohex-3-enecarboxylic acid], the pIC50 falls from 8.70 to 8.40 (0.30 log units). The first is the more potent here.

Going from COC1CN(C(=O)c2ccc3c(C4=CCC(C(=O)O)CC4)nn(C(=O)c4c(Cl)cccc4C4CC4)c3c2)C1 (single isomer, unassigned) [Example 2B, (S or R)-4-(1-(2-chloro-6-cyclopropylbenzoyl)-6-(3-methoxyazetidine-1-carbonyl)-1H-indazol-3-yl)cyclohex-3-enecarboxylic acid] to COC1CN(C(=O)c2ccc3c(C4=CC[C@@](C)(C(=O)O)CC4)nn(C(=O)c4c(Cl)cccc4C4CC4)c3c2)C1 (single isomer, unassigned) [Example 2D, (S or R)-4-(1-(2-chloro-6-cyclopropylbenzoyl)-6-(3-methoxyazetidine-1-carbonyl)-1H-indazol-3-yl)-1-methylcyclohex-3-enecarboxylic acid], the pIC50 falls from 8.70 to 8.30 (0.40 log units). The first is the more potent here.

Going from CN(C)C(=O)c1ccc2c(C3=CCC(C(=O)O)CC3)nn(C(=O)c3c(Cl)cccc3C(F)(F)F)c2c1 (stereo not drawn) [Example 1A, 4-(1-(2-chloro-6-(trifluoromethyl)benzoyl)-6-(dimethylcarbamoyl)-1H-indazol-3-yl)cyclohex-3-enecarboxylic acid] to CN(C(=O)c1ccc2c(C3=CCC(C(=O)O)CC3)nn(C(=O)c3c(Cl)cccc3C(F)(F)F)c2c1)C1CC1 (stereo not drawn) [Example 4C, 4-(1-(2-chloro-6-(trifluoromethyl)benzoyl)-6-(cyclopropyl(methyl)carbamoyl)-1H-indazol-3-yl)cyclohex-3-enecarboxylic acid], the pIC50 rises from 7.74 to 8.05 (0.31 log units). The second is the more potent here.

Going from O=C(NCCO)c1ccc2c(C3=CCC(C(=O)O)CC3)nn(C(=O)c3c(Cl)cccc3C(F)(F)F)c2c1 (stereo not drawn) [Example 1D, 4-(1-(2-chloro-6-(trifluoromethyl)benzoyl)-6-(2-hydroxyethylcarbamoyl)-1H-indazol-3-yl)cyclohex-3-enecarboxylic acid] to O=C(NC1CC1)c1ccc2c(C3=CCC(C(=O)O)CC3)nn(C(=O)c3c(Cl)cccc3C(F)(F)F)c2c1 (stereo not drawn) [Example 4B, 4-(1-(2-chloro-6-(trifluoromethyl)benzoyl)-6-(cyclopropylcarbamoyl)-1H-indazol-3-yl)cyclohex-3-enecarboxylic acid], the pIC50 rises from 6.11 to 6.84 (0.73 log units). The second is the more potent here.

First: CC1(C(=O)O)CC=C(c2nn(C(=O)c3c(Cl)cccc3C(F)(F)F)c3cccnc23)CC1 (stereo not drawn) [Example 1F, 4-(1-(2-chloro-6-(trifluoromethyl)benzoyl)-1H-pyrazolo[4,3-b]pyridin-3-yl)-1-methylcyclohex-3-enecarboxylic acid]
Second: CC1(C(=O)O)CC=C(c2nn(C(=O)c3c(Cl)cccc3C(F)(F)F)c3cccc(Cl)c23)CC1 (stereo not drawn) [Example 1I, 4-(4-chloro-1-(2-chloro-6-(trifluoromethyl)benzoyl)-1H-indazol-3-yl)-1-methylcyclohex-3-enecarboxylic acid]
The pIC50 of the first is 1.08 log units lower: 6.77 for the first, 7.85 for the second.

CC1C=C(c2nn(C(=O)c3c(Cl)cccc3C(F)(F)F)c3cccnc23)CCC1C(=O)O (stereo not drawn) [Example 1G, 4-(1-(2-chloro-6-(trifluoromethyl)benzoyl)-1H-pyrazolo[4,3-b]pyridin-3-yl)-2-methylcyclohex-3-enecarboxylic acid] and Cc1cccc(Cl)c1C(=O)n1nc(C2=CCC(C(=O)O)CC2)c2ncccc21 (stereo not drawn) [Example 1L, 4-(1-(2-chloro-6-methylbenzoyl)-1H-pyrazolo[4,3-b]pyridine-3-yl)cyclohex-3-enecarboxylic acid] are within 0.2 log units of each other in pIC50: 6.74 for the first, 6.91 for the second.

First: CC1(C(=O)O)CC=C(c2nn(C(=O)c3c(Cl)cccc3C3CC3)c3cccc(F)c23)CC1 (stereo not drawn) [Example 1J, 4-(1-(2-chloro-6-cyclopropylbenzoyl)-4-fluoro-1H-indazol-3-yl)-1-methylcyclohex-3-enecarboxylic acid]
Second: Cc1cccc(Cl)c1C(=O)n1nc(C2=CCC(C(=O)O)CC2)c2c(F)cccc21 (stereo not drawn) [Example 1K, 4-(1-(2-chloro-6-methylbenzoyl)-4-fluoro-1H-indazol-3-yl)cyclo-hex-3-enecarboxylic acid]
The pIC50 of the first is 0.64 log units higher: 8.15 for the first, 7.51 for the second. The first is the more potent here.

Going from O=C(O)C1CC=C(c2nn(C(=O)c3c(Cl)cccc3C(F)(F)F)c3cc(C(=O)N4CC(F)(F)C4)ccc23)CC1 (stereo not drawn) [Example 4A, 4-(1-(2-chloro-6-(trifluoromethyl)benzoyl)-6-(3,3-difluoroazetidine-1-carbonyl)-1H-indazol-3-yl)cyclohex-3-enecarboxylic acid] to O=C(O)C1CC=C(c2nn(C(=O)c3c(Cl)cccc3C(F)(F)F)c3cc(C(=O)N4CCC4)ccc23)CC1 (stereo not drawn) [Example 4D, 4-(6-(azetidine-1-carbonyl)-1-(2-chloro-6-(trifluoromethyl)benzoyl)-1H-indazol-3-yl)cyclohex-3-enecarboxylic acid], the pIC50 falls from 8.30 to 6.75 (1.55 log units). The first is the more potent here.

First: COC1CN(C(=O)c2ccc3c(C4=CCC(C(=O)O)CC4)nn(C(=O)c4c(Cl)cccc4C(F)(F)F)c3c2)C1 (stereo not drawn) [Example 4E, 4-(1-(2-chloro-6-(trifluoromethyl)benzoyl)-6-(3-methoxyazetidine-1-carbonyl)-1H-indazol-3-yl)cyclohex-3-enecarboxylic acid]
Second: CC1CN(C(=O)c2ccc3c(C4=CCC(C(=O)O)CC4)nn(C(=O)c4c(Cl)cccc4C(F)(F)F)c3c2)CCO1 (stereo not drawn) [Example 4J, 4-(1-(2-chloro-6-(trifluoromethyl)benzoyl)-6-(2-methylmorpholine-4-carbonyl)-1H-indazol-3-yl)cyclohex-3-enecarboxylic acid]
The pIC50 of the first is 1.08 log units higher: 8.70 for the first, 7.62 for the second.

O=C(O)C1CC=C(c2nn(C(=O)c3c(Cl)cccc3C(F)(F)F)c3cc(C(=O)N4CCCC4)ccc23)CC1 (stereo not drawn) [Example 4F, 4-(1-(2-chloro-6-(trifluoromethyl)benzoyl)-6-(pyrrolidine-1-carbonyl)-1H-indazol-3-yl)cyclohex-3-enecarboxylic acid] and O=C(O)C1CC=C(c2nn(C(=O)c3c(Cl)cccc3C(F)(F)F)c3cc(C(=O)N4CCOCC4)ccc23)CC1 (stereo not drawn) [Example 4L, 4-(1-(2-chloro-6-(trifluoromethyl)benzoyl)-6-(morpholine-4-carbonyl)-1H-indazol-3-yl)cyclohex-3-enecarboxylic acid] are within 0.2 log units of each other in pIC50: 7.52 for the first, 7.44 for the second.

Compared with C[C@H]1CCCN1C(=O)c1ccc2c(C3=CCC(C(=O)O)CC3)nn(C(=O)c3c(Cl)cccc3C(F)(F)F)c2c1 (stereo partly drawn) [Example 4G, 4-(1-(2-chloro-6-(trifluoromethyl)benzoyl)-6-((S)-2-methylpyrrolidine-1-carbonyl)-1H-indazol-3-yl)cyclohex-3-enecarboxylic acid], C[C@@H]1CCCN1C(=O)c1ccc2c(C3=CCC(C(=O)O)CC3)nn(C(=O)c3c(Cl)cccc3C(F)(F)F)c2c1 (stereo partly drawn) [Example 4H, 4-(1-(2-chloro-6-(trifluoromethyl)benzoyl)-6-((R)-2-methylpyrrolidine-1-carbonyl)-1H-indazol-3-yl)cyclohex-3-enecarboxylic acid] is 1.28 log units lower in pIC50: 8.22 for the first, 6.94 for the second. The first is the more potent here.

Work on CN(C(=O)c1ccc2c(C3=CCC(C(=O)O)CC3)nn(C(=O)c3c(Cl)cccc3C(F)(F)F)c2c1)C1CCCCC1 (stereo not drawn) [Example 4K, 4-(1-(2-chloro-6-(trifluoromethyl)benzoyl)-6-(cyclohexyl(methyl)carbamoyl)-1H-indazol-3-yl)cyclohex-3-enecarboxylic acid] yielded a pIC50 of 7.03.
